Reference: PubChem BioAssay AID651988 (The Scripps Research Institute Molecular Screening Center, 2013)
Calls of active or inactive are those of the source.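 The calls were made as follows: active = inhibition of 50% or more at 300 nM in exactly one of the two enzyme panels, LYPLA1 or LYPLA2; inactive = under 50% in both panels, or reaching 50% in both.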

How the values were obtained:
[1] = target: Acyl-protein thioesterase 1 (Homo sapiens) (UniProt O75608); assay: selectivity of LYPLA1/LYPLA2 inhibition – cell lysate, gel-based ABPP, fluorescence, HEK293T proteome, powder samples, selectivity assay for LYPLA1/LYPLA2 inhibitor project, late-stage follow-up (AID 651988); details: HEK293T soluble proteome, FP-PEG-Rh fluorescence, LYPLA1, at 10 µM, stronger effect = higher value
Sequence of Acyl-protein thioesterase 1 (Homo sapiens) (O75608 whole entry, looked up): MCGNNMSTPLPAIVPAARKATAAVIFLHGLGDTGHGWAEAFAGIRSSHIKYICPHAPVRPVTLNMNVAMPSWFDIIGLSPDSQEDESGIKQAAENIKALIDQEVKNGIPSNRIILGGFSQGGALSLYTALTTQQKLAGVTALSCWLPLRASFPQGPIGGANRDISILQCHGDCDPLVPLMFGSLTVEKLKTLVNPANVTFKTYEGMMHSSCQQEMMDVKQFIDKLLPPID

[2] = target: Acyl-protein thioesterase 2 (Homo sapiens) (UniProt O95372); assay: as above; details: HEK293T soluble proteome, FP-PEG-Rh fluorescence, LYPLA2, at 10 µM, stronger effect = higher value
Sequence of Acyl-protein thioesterase 2 (Homo sapiens) (O95372 whole entry, looked up): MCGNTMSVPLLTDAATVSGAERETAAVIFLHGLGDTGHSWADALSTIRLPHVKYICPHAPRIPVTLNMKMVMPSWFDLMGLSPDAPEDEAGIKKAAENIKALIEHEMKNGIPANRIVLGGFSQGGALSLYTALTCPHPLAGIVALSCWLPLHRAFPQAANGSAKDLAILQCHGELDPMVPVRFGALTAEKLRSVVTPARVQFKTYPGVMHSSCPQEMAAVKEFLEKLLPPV

inhibition [1] | inhibition [2] | SMILES
0% (inactive) | 100% (inactive) | O=C(c1cc2c(s1)-c1ccccc1S(=O)(=O)C2)N1CCN(c2ccc(Cl)cc2)CC1
0% (inactive) | 0% (inactive) | CC1CCc2c(sc(NC(=O)CN3CCN(C(=O)c4ccco4)CC3)c2C#N)C1 (configuration not stated)
50% (inactive) | 50% (inactive) | O=C(CN1CCN(C(=O)c2ccco2)CC1)Nc1ccc(Cl)cc1Cl
0% (inactive) | 0% (inactive) | Cc1nnsc1C(=O)N1CCCC(N2CCN(c3cccc(C(F)(F)F)c3)CC2)C1 (configuration not stated)
0% (inactive) | 25% (inactive) | O=C(c1cc2c(s1)-c1ccccc1S(=O)(=O)C2)N1CCN(C2CCCCC2)CC1
0% (inactive) | 75% (inactive) | O=C(c1cc2c(s1)-c1ccc(Cl)cc1S(=O)(=O)C2)N1CCN(c2ncccn2)CC1
100% (inactive) | 50% (inactive) | O=C(c1ccco1)N1CCN(C(=S)Nc2ccc(F)c(Cl)c2)CC1
100% | 25% (inactive) | O=C(CN1CCN(C(=O)c2ccco2)CC1)Nc1cc(Cl)ccc1Cl
25% (inactive) | 0% (inactive) | O=C(COc1ccc(Cl)cc1)N1CCN(c2cccc(C(F)(F)F)c2)CC1
100% | 25% (inactive) | O=C(CN1CCN(C(=O)c2ccco2)CC1)Nc1cc(C(F)(F)F)ccc1Cl
0% (inactive) | 0% (inactive) | O=C(CN1CCN(C(=O)c2ccco2)CC1)Nc1cccc(Cl)c1Cl

The next lines start with the molecule.

SMILES | inhibition [1] | inhibition [2]
COc1ccc(N2CCN(C(=O)c3ccc(C(C)(C)C)cc3)CC2)cc1 | 0% (inactive) | 75% (inactive)
O=C(Nc1ccc(N2CCN(C(=O)c3ccco3)CC2)c(Cl)c1)c1c(F)c(F)c(F)c(F)c1F | 75% (inactive) | 50% (inactive)
O=C(c1cc2c(s1)-c1ccccc1S(=O)(=O)C2)N1CCN(Cc2ccccc2)CC1 | 0% (inactive) | 50% (inactive)
O=C(c1cc2c(s1)-c1ccccc1S(=O)(=O)C2)N1CCN(c2ccccc2)CC1 | 0% (inactive) | 75% (inactive)
O=C(c1ccco1)N1CCN(C(=S)Nc2cccc([N+](=O)[O-])c2)CC1 | 0% (inactive) | 0% (inactive)
COc1ccc(N2CCN(C(=O)c3cc4c(s3)CCCCC4)CC2)cc1 | 0% (inactive) | 100% (inactive)
O=C(CN1CCN(C(=O)c2ccco2)CC1)Nc1ccc(Br)cc1Cl | 50% (inactive) | 50% (inactive)
CCOC(=O)N1CCN(C(=O)c2cc3c(s2)-c2ccc(Cl)cc2S(=O)(=O)C3)CC1 | 0% (inactive) | 0% (inactive)
O=C(c1cc2c(s1)-c1ccccc1S(=O)(=O)C2)N1CCN(c2cccc(Cl)c2)CC1 | 0% (inactive) | 0% (inactive)
O=C(CN1CCN(C(=O)c2ccccc2)CC1)Nc1cc(S(=O)(=O)N2CCCC2)ccc1Cl | 75% (inactive) | 0% (inactive)
O=C(c1cc2c(s1)-c1ccc(Cl)cc1S(=O)(=O)C2)N1CCN(C2CCCCC2)CC1 | 0% (inactive) | 75% (inactive)
COc1ccc(N2CCN(C(=O)c3cc4c(s3)-c3ccccc3S(=O)(=O)C4)CC2)cc1 | 0% (inactive) | 100%
O=C(c1cc2c(s1)-c1ccc(Cl)cc1S(=O)(=O)C2)N1CCN(c2ccccn2)CC1 | 0% (inactive) | 0% (inactive)
CC(C(=O)Nc1cccc(C(F)(F)F)c1)N1CCN(C(=O)c2ccco2)CC1 (configuration not stated) | 0% (inactive) | 0% (inactive)
COc1ccccc1N1CCN(C(=O)c2cc3c(s2)-c2ccccc2S(=O)(=O)C3)CC1 | 0% (inactive) | 0% (inactive)
